According to patent publication US9149038B2, “4-amino-6-(heterocyclic)picolinates and 6-amino-2-(heterocyclic)pyrimidine-4-carboxylates and their use as herbicides” (Dow AgroSciences LLC, priority 2013, dated 2015):
Like-named read-outs stand apart in the source and are kept apart here.

Test system: Wheat and Barley and weed species
Test: Post-Emergent Test III: postemergent herbicidal activity in wheat and barley, visual rating after 21 d and probit GR20/GR50/GR80/GR90 (Tables 9-13)
Assay type: in vivo
Details: for Visual Growth Reduction (%) 21 Days After Application BRSNW: winter, canola; for pest or weed control at 17.5 g/ha / pest or weed control at 35 g/ha / pest or weed control at 70 g/ha: post-emergence, 504 h
Summary of the method: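 Greenhouse plants (~18/17 °C, 14 h photoperiod) at second–third true leaf stage sprayed at 187 L/ha with a high rate and ½× to 1/16× serial dilutions. Visual injury 0–100% versus solvent-blank controls scored at 21 d; GR20, GR50, GR80 and GR90 derived by probit analysis across rates.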

Nc1c(F)c(-c2ccc3c(c2)OC(F)(F)O3)nc(C(=O)O)c1Cl [Compound 7]
GR50 ALOMY (ALOMY black-grass (Alopecurus myosuroides), growth reduction of 50%, probit analysis): 16 g ai/ha
GR80 ALOMY (ALOMY black-grass (Alopecurus myosuroides), growth reduction of 80%, probit analysis): 25 g ai/ha
GR90 ALOMY (ALOMY black-grass (Alopecurus myosuroides), growth reduction of 90%, probit analysis): 34 g ai/ha
GR50 APESV (APESV bentgrass (Apera spica-venti), growth reduction of 50%, probit analysis): 30 g ai/ha
GR80 APESV (APESV bentgrass (Apera spica-venti), growth reduction of 80%, probit analysis): 114 g ai/ha
GR90 APESV (APESV bentgrass (Apera spica-venti), growth reduction of 90%, probit analysis): >140 g ai/ha
Visual Growth Reduction (%) 21 Days After Application BROTE (BROTE downy brome (Bromus tectorum), 17.5 g ai/ha): E (45-59)
Visual Growth Reduction (%) 21 Days After Application BROTE (BROTE downy brome (Bromus tectorum), 35 g ai/ha): D (60-74)
Visual Growth Reduction (%) 21 Days After Application BROTE (BROTE downy brome (Bromus tectorum), 70 g ai/ha): A (95-100)
GR50 BROTE (BROTE downy brome (Bromus tectorum), growth reduction of 50%, probit analysis): 15 g ai/ha
GR80 BROTE (BROTE downy brome (Bromus tectorum), growth reduction of 80%, probit analysis): 37 g ai/ha
GR90 BROTE (BROTE downy brome (Bromus tectorum), growth reduction of 90%, probit analysis): 59 g ai/ha
GR10 BRSNW (BRSNW oil seed rape, winter (Brassica napus), GR10, probit analysis): 0.5 g ai/ha
GR20 BRSNW (BRSNW oil seed rape, winter (Brassica napus), growth reduction of 20%, probit analysis): 1 g ai/ha
GR50 BRSNW (BRSNW oil seed rape, winter (Brassica napus), growth reduction of 50%, probit analysis): 5 g ai/ha
GR80 BRSNW (BRSNW oil seed rape, winter (Brassica napus), growth reduction of 80%, probit analysis): 24 g ai/ha
GR90 BRSNW (BRSNW oil seed rape, winter (Brassica napus), growth reduction of 90%, probit analysis): 53 g ai/ha
Visual Growth Reduction (%) 21 Days After Application BRSNW (BRSNW oil seed rape, winter (Brassica napus), 17.5 g ai/ha): D (60-74)
Visual Growth Reduction (%) 21 Days After Application BRSNW (BRSNW oil seed rape, winter (Brassica napus), 35 g ai/ha): C (75-84)
Visual Growth Reduction (%) 21 Days After Application BRSNW (BRSNW oil seed rape, winter (Brassica napus), 70 g ai/ha): A (95-100)
Visual Growth Reduction (%) 21 Days After Application GALAP (GALAP cleavers (Galium aparine), 17.5 g ai/ha): E (45-59)
Visual Growth Reduction (%) 21 Days After Application GALAP (GALAP cleavers (Galium aparine), 35 g ai/ha): D (60-74)
Visual Growth Reduction (%) 21 Days After Application GALAP (GALAP cleavers (Galium aparine), 70 g ai/ha): A (95-100)
GR50 GALAP (GALAP cleavers (Galium aparine), growth reduction of 50%, probit analysis): 12 g ai/ha
GR80 GALAP (GALAP cleavers (Galium aparine), growth reduction of 80%, probit analysis): 31 g ai/ha
GR90 GALAP (GALAP cleavers (Galium aparine), growth reduction of 90%, probit analysis): 52 g ai/ha
GR10 HORVS (HORVS barley, spring (crop), GR10, probit analysis): 1 g ai/ha
GR20 HORVS (HORVS barley, spring (crop), growth reduction of 20%, probit analysis): 2 g ai/ha
pest or weed control at 17.5 g/ha (Hordeum vulgare, HORVS barley, spring (crop), 17.5 g ai/ha, read-out: Visual Growth Reduction (%) 21 Days After Application HORVS): 75 to 84%
pest or weed control at 35 g/ha (Hordeum vulgare, HORVS barley, spring (crop), 35 g ai/ha, read-out: Visual Growth Reduction (%) 21 Days After Application HORVS): 85 to 94%
pest or weed control at 70 g/ha (Hordeum vulgare, HORVS barley, spring (crop), 70 g ai/ha, read-out: Visual Growth Reduction (%) 21 Days After Application HORVS): 85 to 94%
Visual Growth Reduction (%) 21 Days After Application LAMPU (LAMPU purple deadnettle (Lamium purpureum), 17.5 g ai/ha): C (75-84)
Visual Growth Reduction (%) 21 Days After Application LAMPU (LAMPU purple deadnettle (Lamium purpureum), 35 g ai/ha): B (85-94)
Visual Growth Reduction (%) 21 Days After Application LAMPU (LAMPU purple deadnettle (Lamium purpureum), 70 g ai/ha): A (95-100)
GR50 LAMPU (LAMPU purple deadnettle (Lamium purpureum), growth reduction of 50%, probit analysis): 3 g ai/ha
GR80 LAMPU (LAMPU purple deadnettle (Lamium purpureum), growth reduction of 80%, probit analysis): 12 g ai/ha
GR90 LAMPU (LAMPU purple deadnettle (Lamium purpureum), growth reduction of 90%, probit analysis): 27 g ai/ha
GR50 LOLSS (LOLSS ryegrass, growth reduction of 50%, probit analysis): >140 g ai/ha
GR80 LOLSS (LOLSS ryegrass, growth reduction of 80%, probit analysis): >140 g ai/ha
GR90 LOLSS (LOLSS ryegrass, growth reduction of 90%, probit analysis): >140 g ai/ha
Visual Growth Reduction (%) 21 Days After Application PHAMI (PHAMI lesser canary grass (Phalaris minor), 17.5 g ai/ha): C (75-84)
Visual Growth Reduction (%) 21 Days After Application PHAMI (PHAMI lesser canary grass (Phalaris minor), 35 g ai/ha): B (85-94)
Visual Growth Reduction (%) 21 Days After Application PHAMI (PHAMI lesser canary grass (Phalaris minor), 70 g ai/ha): A (95-100)
GR50 PHAMI (PHAMI lesser canary grass (Phalaris minor), growth reduction of 50%, probit analysis): 10 g ai/ha
GR80 PHAMI (PHAMI lesser canary grass (Phalaris minor), growth reduction of 80%, probit analysis): 24 g ai/ha
GR90 PHAMI (PHAMI lesser canary grass (Phalaris minor), growth reduction of 90%, probit analysis): 39 g ai/ha
GR50 SETVI (SETVI green foxtail (Setaria viridis), growth reduction of 50%, probit analysis): 6 g ai/ha
GR80 SETVI (SETVI green foxtail (Setaria viridis), growth reduction of 80%, probit analysis): 13 g ai/ha
GR90 SETVI (SETVI green foxtail (Setaria viridis), growth reduction of 90%, probit analysis): 21 g ai/ha
Visual Growth Reduction (%) 21 Days After Application SINAR (SINAR wild mustard (Sinapis arvensis), 17.5 g ai/ha): C (75-84)
Visual Growth Reduction (%) 21 Days After Application SINAR (SINAR wild mustard (Sinapis arvensis), 35 g ai/ha): B (85-94)
Visual Growth Reduction (%) 21 Days After Application SINAR (SINAR wild mustard (Sinapis arvensis), 70 g ai/ha): A (95-100)
GR50 SINAR (SINAR wild mustard (Sinapis arvensis), growth reduction of 50%, probit analysis): 3 g ai/ha
GR80 SINAR (SINAR wild mustard (Sinapis arvensis), growth reduction of 80%, probit analysis): 15 g ai/ha
GR90 SINAR (SINAR wild mustard (Sinapis arvensis), growth reduction of 90%, probit analysis): 36 g ai/ha
GR10 TRZAS (TRZAS wheat, spring (crop), GR10, probit analysis): 2 g ai/ha
GR20 TRZAS (TRZAS wheat, spring (crop), growth reduction of 20%, probit analysis): 3 g ai/ha
pest or weed control at 17.5 g/ha (Triticum aestivum, TRZAS wheat, spring (crop), 17.5 g ai/ha, read-out: Visual Growth Reduction (%) 21 Days After Application TRZAS): 75 to 84%
pest or weed control at 35 g/ha (Triticum aestivum, TRZAS wheat, spring (crop), 35 g ai/ha, read-out: Visual Growth Reduction (%) 21 Days After Application TRZAS): 85 to 94%
pest or weed control at 70 g/ha (Triticum aestivum, TRZAS wheat, spring (crop), 70 g ai/ha, read-out: Visual Growth Reduction (%) 21 Days After Application TRZAS): 85 to 94%
pest or weed control at 17.5 g/ha (ALOMY black-grass (Alopecurus myosuroides), 17.5 g ai/ha, read-out: Visual Growth Reduction (%) 21 Days After Application ALOMY): 45 to 59%
pest or weed control at 35 g/ha (ALOMY black-grass (Alopecurus myosuroides), 35 g ai/ha, read-out: Visual Growth Reduction (%) 21 Days After Application ALOMY): 85 to 94%
pest or weed control at 70 g/ha (ALOMY black-grass (Alopecurus myosuroides), 70 g ai/ha, read-out: Visual Growth Reduction (%) 21 Days After Application ALOMY): 95 to 100%
pest or weed control at 17.5 g/ha (APESV bentgrass (Apera spica-venti), 17.5 g ai/ha, read-out: Visual Growth Reduction (%) 21 Days After Application APESV): 45 to 59%
pest or weed control at 35 g/ha (APESV bentgrass (Apera spica-venti), 35 g ai/ha, read-out: Visual Growth Reduction (%) 21 Days After Application APESV): 60 to 74%
pest or weed control at 70 g/ha (APESV bentgrass (Apera spica-venti), 70 g ai/ha, read-out: Visual Growth Reduction (%) 21 Days After Application APESV): 75 to 84%
pest or weed control at 17.5 g/ha (LOLSS ryegrass, 17.5 g ai/ha, read-out: Visual Growth Reduction (%) 21 Days After Application LOLSS): 30 to 44%
pest or weed control at 35 g/ha (LOLSS ryegrass, 35 g ai/ha, read-out: Visual Growth Reduction (%) 21 Days After Application LOLSS): 45 to 59%
pest or weed control at 70 g/ha (LOLSS ryegrass, 70 g ai/ha, read-out: Visual Growth Reduction (%) 21 Days After Application LOLSS): 60 to 74%
pest or weed control at 17.5 g/ha (SETVI green foxtail (Setaria viridis), 17.5 g ai/ha, read-out: Visual Growth Reduction (%) 21 Days After Application SETVI): 60 to 74%
pest or weed control at 35 g/ha (SETVI green foxtail (Setaria viridis), 35 g ai/ha, read-out: Visual Growth Reduction (%) 21 Days After Application SETVI): 75 to 84%
pest or weed control at 70 g/ha (SETVI green foxtail (Setaria viridis), 70 g ai/ha, read-out: Visual Growth Reduction (%) 21 Days After Application SETVI): 85 to 94%
